# Experimental data from ChEMBL document CHEMBL5335837, “Reinvestigation of diphenylmethylpiperazine analogues of pyrazine as new class of Plasmodial cysteine protease inhibitors for the treatment of malaria” (RSC Med Chem, 2024).
# Active and inactive are the calls of the source. The rule behind the calls is not given here.
# Columns and labels:
# Falcipain 2 = target: T1, Falcipain 2 (Plasmodium falciparum, UniProt Q9N6S8); experiment: Inhibition of Plasmodium falciparum FP2 using Z-Leu-Arg-AMC as substrate incubated for 30 mins by spectrofluorometry analysis
# T1 sequence (Q9N6S8 whole entry): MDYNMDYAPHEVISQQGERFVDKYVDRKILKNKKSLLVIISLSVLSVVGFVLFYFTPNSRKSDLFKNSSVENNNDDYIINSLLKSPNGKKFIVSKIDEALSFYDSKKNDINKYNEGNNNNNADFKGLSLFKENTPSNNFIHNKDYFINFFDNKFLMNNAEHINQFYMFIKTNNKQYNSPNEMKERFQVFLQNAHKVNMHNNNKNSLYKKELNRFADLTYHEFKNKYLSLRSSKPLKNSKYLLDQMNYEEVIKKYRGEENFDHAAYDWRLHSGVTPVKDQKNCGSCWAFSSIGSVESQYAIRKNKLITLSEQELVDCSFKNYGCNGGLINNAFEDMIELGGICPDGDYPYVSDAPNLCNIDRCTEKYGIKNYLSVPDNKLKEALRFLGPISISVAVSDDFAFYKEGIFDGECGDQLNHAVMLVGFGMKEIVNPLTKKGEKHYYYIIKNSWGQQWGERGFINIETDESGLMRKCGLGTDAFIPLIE
# [1] = Selectivity index, ratio of IC50 for cytotoxicity against african green monkey vero cells to IC50 for antimalarial activity against Plasmodium falciparum W2; type: toxicity, cell-based; conditions: read-out: Ratio IC50
# [2] = Selectivity index, ratio of IC50 for cytotoxicity against human A549 cells to IC50 for antimalarial activity against Plasmodium falciparum W2; type: toxicity, cell-based; conditions: read-out: Ratio IC50
# [3] = Selectivity index, ratio of IC50 for cytotoxicity against african green monkey vero cells to IC50 for cytotoxicity against human A549 cells
# A549 = experiment: Anticancer activity against human A549 cells measured after 24 hrs by MTT assay; type: functional, cell-based; conditions: A549, 24 h
# Plasmodium falciparum [4] = experiment: Antimalarial activity against Plasmodium falciparum W2 assessed as reduction in parasite growth incubated for 48 to 50 hrs by microplate reader analysis; type: functional, organism-based
# Vero = experiment: Cytotoxicity against african green monkey Vero cells upto 1000 uM measured after 72 hrs by MTT assay; type: toxicity, cell-based; conditions: chlorocebus sabaeus
# Plasmodium falciparum [5] = experiment: Antimalarial activity against Plasmodium falciparum 3D7 assessed as reduction in parasite growth incubated for 48 to 50 hrs by microplate reader analysis; type: functional, organism-based
# [6] = Selectivity index, ratio of IC50 for cytotoxicity against african green monkey vero cells to IC50 for antimalarial activity against Plasmodium falciparum 3D7; type: toxicity, cell-based; conditions: read-out: Ratio IC50
# Falcipain-3 = target: T2, Falcipain-3 (Plasmodium falciparum 3D7, UniProt Q8IIL0); experiment: Inhibition of Plasmodium falciparum FP3 using Z-Leu-Arg-AMC as substrate incubated for 30 mins by spectrofluorometry analysis
# T2 sequence (Q8IIL0 whole entry): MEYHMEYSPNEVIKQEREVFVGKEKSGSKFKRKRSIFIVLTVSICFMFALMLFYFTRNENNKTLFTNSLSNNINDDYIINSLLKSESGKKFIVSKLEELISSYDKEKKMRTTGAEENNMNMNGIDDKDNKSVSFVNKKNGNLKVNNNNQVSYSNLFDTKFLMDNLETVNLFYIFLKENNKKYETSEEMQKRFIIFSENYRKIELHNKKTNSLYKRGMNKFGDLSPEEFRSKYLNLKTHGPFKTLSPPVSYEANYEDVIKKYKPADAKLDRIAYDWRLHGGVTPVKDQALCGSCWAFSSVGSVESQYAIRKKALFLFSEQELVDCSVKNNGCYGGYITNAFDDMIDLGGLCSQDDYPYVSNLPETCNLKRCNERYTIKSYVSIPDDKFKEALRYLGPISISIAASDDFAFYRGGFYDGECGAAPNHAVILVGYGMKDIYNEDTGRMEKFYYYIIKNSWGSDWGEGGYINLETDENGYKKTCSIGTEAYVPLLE
# Erythrocyte = experiment: Hemolytic activity in human RBCs at 100 uM incubated for 2 hrs by microplate reader analysis; type: toxicity, cell-based
# [7] = Selectivity index, ratio of IC50 for cytotoxicity against human A549 cells to IC50 for antimalarial activity against Plasmodium falciparum 3D7; type: toxicity, cell-based; conditions: read-out: Ratio IC50
# Plasmodium falciparum [8] = experiment: Resistance index, ratio of IC50 for antimalarial activity against Plasmodium falciparum 3D7 to IC50 for antimalarial activity against Plasmodium falciparum W2; type: functional
# Plasmodium falciparum [9] = experiment: Antimalarial activity against ring stage Plasmodium falciparum 3D7 infected in human erythrocytes incubated for 48 to 50 hrs by YOYO-1 staining based FACS analysis; type: functional, organism-based; conditions: 3D7, Erythrocyte
# Plasmodium falciparum [10] = experiment: Antimalarial activity against Plasmodium falciparum 3D7 assessed as decrease in development of early trophozoite stage at 3 times IC50 incubated for 48 hrs by Geimsa staining based analysis; type: functional, organism-based
# Plasmodium falciparum [11] = experiment: Antimalarial activity against Plasmodium falciparum 3D7 assessed as decrease in new ring formation at 3 times IC50 concentration incubated for 48 hrs by Geimsa staining based analysis; type: functional, organism-based
# Plasmodium falciparum [12] = experiment: Antimalarial activity against Plasmodium falciparum Dd2 assessed as inhibition of parasite growth incubated for 72 hrs by confocal microscopy analysis; type: functional, organism-based; conditions: Dd2, 72 h
# Plasmodium falciparum [13] = experiment: Antimalarial activity against Plasmodium falciparum 3D7 assessed as inhibition of parasite growth incubated for 72 hrs by confocal microscopy analysis; type: functional, organism-based; conditions: 3D7, 72 h
# [14] = Plasmodium falciparum, 3D7, read-out: IC50
SMILES,IC50 (Falcipain 2),selectivity ratio [1],selectivity ratio [2],Ratio IC50 [3],IC50 (A549),IC50 (Plasmodium falciparum [4]),Activity (Vero),IC50 (Plasmodium falciparum [5]; [14]),selectivity ratio [6],IC50 (Falcipain-3),Activity (Erythrocyte),selectivity ratio [7],Ratio IC50 (Plasmodium falciparum [8]),also measured
COc1cccc(C(c2ccc(OC(F)(F)F)cc2)N2CCN(c3cnccn3)CC2)c1O (stereo not given),11.4 µM,459,21.6,21.23,47.1 µM,2.18 µM,Non-Toxic,3.5 µM,286,14.4 µM,Non-Toxic,13.5,1.6,–
COc1cccc(C(c2ccc(C)cc2)N2CCN(c3cnccn3)CC2)c1O (stereo not given),–,–,–,–,–,–,–,> 12.5 µM,–,–,Non-Toxic,–,–,–
CC(C)C[C@H](NC(=O)[C@H]1O[C@@H]1C(=O)O)C(=O)NCCCCN=C(N)N [E-64],0.0544 µM,–,–,–,–,–,–,–,–,0.116 µM,–,–,–,–
CCc1nc(N)nc(N)c1-c1ccc(Cl)cc1 [PYRIMETHAMINE],–,–,–,–,–,–,–,–,–,–,–,–,–,IC50 (Plasmodium falciparum [9]): 0.015 µM
COc1ccc(C(c2ccccc2O)N2CCN(c3cnccn3)CC2)cc1 (stereo not given),31.1 µM,467,240,1.95,514 µM,2.14 µM,Non-Toxic,17.2 µM,58.1,33.9 µM,Non-Toxic,29.9,8.04,Activity (Plasmodium falciparum [10]): Active; Activity (Plasmodium falciparum [11]): Active
Oc1ccccc1C(c1ccc(F)cc1)N1CCN(c2cnccn2)CC1 (stereo not given),–,–,–,–,–,–,–,–,–,–,Non-Toxic,–,–,IC50 (Plasmodium falciparum [5]): Not Determined(Insoluble)
Oc1ccccc1C(c1ccc(Cl)c(Cl)c1)N1CCN(c2cnccn2)CC1 (stereo not given),6.6 µM,244,15,16.29,61.4 µM,4.1 µM,Non-Toxic,2.81 µM,356,6.9 µM,Non-Toxic,21.9,0.68,Activity (Plasmodium falciparum [10]): Active; Activity (Plasmodium falciparum [11]): Active
Oc1ccccc1C(c1ccc(F)c(F)c1)N1CCN(c2cnccn2)CC1 (stereo not given),–,–,–,–,–,–,–,3.91 µM,–,–,Non-Toxic,–,–,–
Cc1ccc(C(c2ccccc2O)N2CCN(c3cnccn3)CC2)cc1 (stereo not given),–,–,–,–,–,–,–,3.76 µM,–,–,Non-Toxic,–,–,–
Oc1ccccc1C(c1ccc(C(F)(F)F)cc1)N1CCN(c2cnccn2)CC1 (stereo not given),8.5 µM,31.9,1.89,16.8,59.5 µM,31.4 µM,Non-Toxic,1.78 µM,562,9.6 µM,Non-Toxic,33.4,0.06,Activity (Plasmodium falciparum [10]): Active; Activity (Plasmodium falciparum [11]): Active
COc1cccc(C(c2ccc(F)c(Cl)c2)N2CCN(c3cnccn3)CC2)c1O (stereo not given),–,–,–,–,–,–,–,7.32 µM,–,–,Non-Toxic,–,–,–
COc1cccc(C(c2ccc(Cl)c(Cl)c2)N2CCN(c3cnccn3)CC2)c1O (stereo not given),–,–,–,–,–,–,–,4.62 µM,–,–,Non-Toxic,–,–,–
FC(F)Oc1ccc(-c2nnc3cncc(OCCc4ccccc4)n23)cc1,–,–,–,–,–,–,–,–,–,–,–,–,–,IC50 (Plasmodium falciparum [12]): 0.54 µM; IC50 (Plasmodium falciparum [13]): 0.31 µM
COc1cccc(C(c2ccc(F)cc2)N2CCN(c3cnccn3)CC2)c1O (stereo not given),–,–,–,–,–,–,–,> 12.5 µM,–,–,Non-Toxic,–,–,–
COc1cccc(C(c2ccc(F)c(F)c2)N2CCN(c3cnccn3)CC2)c1O (stereo not given),24.3 µM,129,26.1,4.92,203 µM,7.78 µM,Non-Toxic,13.5 µM,74.1,27.6 µM,Non-Toxic,15.1,1.73,–
COc1ccc(C(c2cccc(OC)c2O)N2CCN(c3cnccn3)CC2)cc1 (stereo not given),–,–,–,–,–,–,–,> 12.5 µM,–,–,Non-Toxic,–,–,–
Oc1ccccc1C(c1ccc(F)c(Cl)c1)N1CCN(c2cnccn2)CC1 (stereo not given),–,–,–,–,–,–,–,4.1 µM,–,–,Non-Toxic,–,–,–
COc1cccc(C(c2ccc(C(F)(F)F)cc2)N2CCN(c3cnccn3)CC2)c1O (stereo not given),6.2 µM,230,27.7,8.3,120 µM,4.35 µM,Non-Toxic,3.05 µM,328,6.8 µM,Non-Toxic,39.5,0.7,Activity (Plasmodium falciparum [10]): Active; Activity (Plasmodium falciparum [11]): Active
Oc1ccccc1C(c1ccc(OC(F)(F)F)cc1)N1CCN(c2cnccn2)CC1 (stereo not given),5.9 µM,295,27.1,10.89,91.8 µM,3.39 µM,Non-Toxic,2.8 µM,357,6.4 µM,Non-Toxic,32.8,0.83,Activity (Plasmodium falciparum [10]): Active; Activity (Plasmodium falciparum [11]): Active
CCN(CC)CCCC(C)Nc1ccnc2cc(Cl)ccc12 (stereo not given) [CHLOROQUINE],–,–,–,–,–,–,–,–,–,–,Non-Toxic,–,–,–
